Data as given in US20120071397A1, “Methods for Hematopoietic Stem Cell Transplantation” (University of Southern California, priority 2010, published 2012).

Tested on: C57Bl/6 mice transplanted after myeloablation by total body irradiation (TBI)
Assay: Survival of mice after syngeneic bone marrow transplant following myeloablation by total body irradiation, with suspected norovirus infection
Assay type: in vivo
Conditions: 500 μg/kg/day subcutaneous, FIG. 1
Description: FIG. 1. C57Bl/6 mice (n=40/group) were transplanted after myeloablation by total body irradiation (TBI) from Saline or A(1-7) treated donors and received saline or A(1-7) after transplant.
[…] mice underwent […] in split doses separated by 3 hours. Two hours after TBI, the mice received 2×10^6 syngeneic bone marrow cells by intravenous injection. For treatment, either donors (14 days prior to donation), recipients (starting on the day of transplant) or both received 500 μg/kg/day A(1-7) by subcutaneous injection During bone marrow transplant (BMT), recipients are immune suppressed due to myeloablation. Mice are normally kept in pathogen-free environments during BMT to reduce mortality due to infection.

In the case of “Asp-Arg-Val-Tyr-Ile-His-Pro (DRVYIHP) [A(1-7)]”, the survival (both donor and recipient treated) is reported as “all surviving” and the survival (treatment of either donor (14 days prior to donation), recipient (starting on day of transplant) or both) is reported as “improved survival”.
